Legend:
[1] = Activated sludge simulating microcosms (degradation of FL, formation of NFL); assay type: physicochemical
Procedure: Activated sludge microcosm experiments were conducted in the dark and aerobic conditions. Three microcosm bioreactors were investigated in duplicate. They were filled with 2 L of fresh activated sludge collected from a local wastewater treatment plant. […] Dark conditions were simulated by covering up the flask with foil. Aerobic conditions were obtained using air from BOC air cylinder and a thorough mixing was maintained using magnetic stirrers. The experiment was 24 hours long. […] Collected samples were subsequently frozen until their analysis to prevent degradation of compounds.
The compounds studied are characterized as having low volatility and therefore volatilization was not considered as a potential removal pathway in studied microcosms. Photodegradation was also not considered (not relevant) under tested activated sludge conditions. Therefore the two important degradation mechanisms to consider were biodegradation and sorption to sludge. […] However, in this study, sorption equilibrium was assumed and therefore sorption could be considered negligible. This is because sorption is assumed to be fast when compared to biological degradation.
Several reports utilized pseudo-first-order kinetics for degradation of micropollutants in activated sludge reactors[48]–[50]. […] Pseudo-first order biodegradation rate k1 [L g^−1h^−1]

[2] = River water simulating microcosms (degradation of FL)
[3] = ref [3], cited from earlier work
[4] = 10 µg L^−1 microcosm, first 30 minutes

Work on `CNCCC(Oc1ccc(C(F)(F)F)cc1)c1ccccc1` (stereo not drawn) [FL, Fluoxetine, reference compound] yielded an EF ([1]; 10 µg L-1 microcosm, time 0) of 0.484, an EF ([1]; 10 µg L-1 microcosm, time 0.5) of 0.504 and an EF ([1]; 10 µg L-1 microcosm, time 1) of 0.347. It also gave an EF ([1]; 10 µg L-1 microcosm, time 1.5) of 0.499, an EF ([1]; 10 µg L-1 microcosm, time 2) of 0.480 and an EF ([1]; 10 µg L-1 microcosm, time 3) of 0.499. It also gave an EF ([1]; 10 µg L-1 microcosm, time 5) of 0.429, an EF ([1]; 10 µg L-1 microcosm, time 8) of 0.461 and an EF ([1]; 10 µg L-1 microcosm, time 12) of 0.263. For the same compound, the EF ([1]; 10 µg L-1 microcosm, time 24) was 0.260, the lag phase ([1]; 10 µg L^−1 FL bioreactor) was 3 h and the “degradation (rapid removal from aqueous phase)” value [1, 4] was 50%. For the same compound, the “enantiomeric fraction (EF)” value [1, 4] was 0.5, the “enantiomeric fraction (EF)” value ([1]; 10 µg L^−1 reactor, after further slow removal) was under 0.3 and the EF ([1]; 100 µg L-1 microcosm, time 0) was 0.531. It also gave an EF ([1]; 100 µg L-1 microcosm, time 0.5) of 0.519, an EF ([1]; 100 µg L-1 microcosm, time 1) of 0.515 and an EF ([1]; 100 µg L-1 microcosm, time 1.5) of 0.516. It also gave an EF ([1]; 100 µg L-1 microcosm, time 2) of 0.511, an EF ([1]; 100 µg L-1 microcosm, time 3) of 0.477 and an EF ([1]; 100 µg L-1 microcosm, time 5) of 0.431. It also gave an EF ([1]; 100 µg L-1 microcosm, time 8) of 0.410, an EF ([1]; 100 µg L-1 microcosm, time 12) of 0.326 and an EF ([1]; 100 µg L-1 microcosm, time 24) of 0.257. The lag phase ([1]; 100 µg L^−1 FL bioreactor) was 2 h, the “enantiomeric fraction (EF)” value ([1]; 100 µg L^−1 microcosm) was under 0.3 and the transformation / removal ([1]; 100 µg L^−1 microcosm, 24 h) was 60%. The EF ([2]; DAR (dark abiotic), day 1) was 0.499, the EF ([2]; DAR (dark abiotic), day 2) was 0.502 and the EF ([2]; DAR (dark abiotic), day 3) was 0.504. For the same compound, the EF ([2]; DAR (dark abiotic), day 4) was 0.507, the EF ([2]; DAR (dark abiotic), day 9) was 0.497 and the EF ([2]; DAR (dark abiotic), day 10) was 0.505. It also gave an EF ([2]; DAR (dark abiotic), day 11) of 0.526, an EF ([2]; DAR (dark abiotic), day 15) of 0.497 and an EF ([2]; DBR (dark biotic), day 1) of 0.506. The EF ([2]; DBR (dark biotic), day 2) was 0.468, the EF ([2]; DBR (dark biotic), day 3) was 0.496 and the EF ([2]; DBR (dark biotic), day 4) was 0.503. It also gave an EF ([2]; DBR (dark biotic), day 5) of 0.495, an EF ([2]; DBR (dark biotic), day 8) of 0.441 and an EF ([2]; DBR (dark biotic), day 9) of 0.499. It also gave an EF ([2]; DBR (dark biotic), day 10) of 0.507, an EF ([2]; DBR (dark biotic), day 11) of 0.495 and an EF ([2]; DBR (dark biotic), day 12) of 0.490. For the same compound, the EF ([2]; DBR (dark biotic), day 15) was 0.538, the EF ([2]; DBR (dark biotic), day 16) was 0.554 and the EF ([2]; LAR (light abiotic), day 1) was 0.497. It also gave an EF ([2]; LAR (light abiotic), day 2) of 0.488, an EF ([2]; LAR (light abiotic), day 3) of 0.491 and an EF ([2]; LAR (light abiotic), day 4) of 0.498. The EF ([2]; LAR (light abiotic), day 5) was 0.511, the EF ([2]; LAR (light abiotic), day 8) was 0.508 and the EF ([2]; LAR (light abiotic), day 9) was 0.513. For the same compound, the EF ([2]; LAR (light abiotic), day 10) was 0.511, the EF ([2]; LAR (light abiotic), day 11) was 0.512 and the EF ([2]; LAR (light abiotic), day 12) was 0.487. The EF ([2]; LAR (light abiotic), day 15) was 0.531, the EF ([2]; LAR (light abiotic), day 16) was 0.535 and the EF ([2]; LBR (light biotic), day 1) was 0.493. The EF ([2]; LBR (light biotic), day 2) was 0.493, the EF ([2]; LBR (light biotic), day 3) was 0.498 and the EF ([2]; LBR (light biotic), day 4) was 0.502. It also gave an EF ([2]; LBR (light biotic), day 5) of 0.508, an EF ([2]; LBR (light biotic), day 8) of 0.537 and an EF ([2]; LBR (light biotic), day 9) of 0.512. The EF ([2]; LBR (light biotic), day 10) was 0.497, the EF ([2]; LBR (light biotic), day 11) was 0.498 and the EF ([2]; LBR (light biotic), day 12) was 0.491. The EF ([2]; LBR (light biotic), day 15) was 0.525, the EF ([2]; LBR (light biotic), day 16) was 0.467 and the “removal of FL” value ([2]; river water, dark abiotic conditions (DAR)) was “did not lead to any significant removal”. The “excreted in the urine as this species” value ([3]; after FL) was 11.6%, the “excreted in the feces” value [3] was “approximately 15%” and the “excreted in the urine” value [3] was 80%.

— paper PMC5693942 (Scientific Reports, 2017)
